Assay results: patent US8241679B2, “Composition comprising the extract of crude drug complex having neuroprotective activity for preventing and treating stroke and neurodegenerative diseases” (Neumed Inc., priority 2007, dated 2012)

Tested on: MCAo in rats
Test: MCAo experimental model, infarct volume (TTC staining)
Type: in vivo, Sprague-Dawley rat
Settings: positive control, 45 mg/kg
Description: To determine the preventing effect of the extract of crude drug complex of the present invention on neuronal injury, following intraluminal suture method using animal model was performed by modifying well-mown method disclosed in the literature (Zea L. E. Stroke, 20, pp 84-91, 1989).
8-weeks old white male Sprague-Dawley rat weighing about 280 g was procured from Samtaco Co. Ltd. (Seoul), […] for 1 week providing with free access to water and feed and acclimated to experimental environment.
The rat was anesthetized with 5% isoflurane gas (mixed gas with the gas mixture consisting of 70% N2O and 30% O2 gas and 5% isoflurane) and maintained with 1% isoflurane gas during experiment.
The skin at the center of rat neck was excised and right CCA (common carotid artery) and ECA (external carotid artery) were isolated from neighboring tissue and nerves with care. […]
The body temperature was monitored and maintained at 37±0.5° C.
The caudal was excised and terminal tissue was discarded to obtain 6 numbers of brain slices with the thickness of 2 mm using by brain matrix. […] The volume of cerebral infarction region was calculated by the OPTIMAS program (Media Cybernetics Co., 6.51 version). To determine the exact volume of cerebral infarction region of right hemisphere excluding edema volume (A), the real volume of cerebral infarction (B) was calculated by following Empirical Formula 1 and 2. […]

Compound: CN(C)c1ccc(O)c2c1C[C@H]1C[C@H]3[C@H](N(C)C)C(O)=C(C(N)=O)C(=O)[C@@]3(O)C(O)=C1C2=O [minocycline]
- infarct volume: 20.5±2.85%
